From US6447801B1, “Anti-parasitic action of N,N-diethyl-m-toluamide (deet) and formulations that prolong its activity in the skin” (priority 1997, dated 2002)

Tests used:
[1] = Absorption through skin: DEET level in plasma by HPLC; assay type: in vivo, mice; settings: 200 μl of 60% on abdominal skin
Procedure: Briefly, the Bond-Elute cartridges were activated by washing with two ml of HPLC grade acetonitrile (Sigma chemicals Co., St. Louis, Mo.) followed by two ml of deionized, degassed filtered water. A low vacuum (<0.5 in Hg) was applied for the wash using a Vac-Elute manifold (Varian Analytical Supplies Co.). […] Hg). The cartridge was then washed with three mls. of acetonitrile-ammoniumacetate (pH 4.5, 0.03 M, at 40:60 V:V) under low vacuum (<0.5 in. Hg). The eluant was then injected directly onto columns (ODS-1, 250×4.6 mm, Alltech Co., Deerfield, Ill.) for HPLC analysis (Waters, Division of Millipore, Milford, Mass.). Chromatographic conditions used for HPLC analysis is as follows: Mobil phase: acetonitrile-ammoniumacetate (pH 4.5, 0.03M, at 36:64 v:v), flow rate 1.0 ml/min, UV detection at 220 nm. Sensitivity was set at 0.01AUFS. […].

Dermacetor variabilis = assay: Tick attachment to rabbit ear, Dermacetor variabilis; assay type: in vivo
Procedure: To determine the effect of DEET on tick attachment and feeding we used two species of ticks Amblyoma americanum and Dermacetor variabilis purchased from University of Oklahoma. Ticks were allowed to feed on the ears of male New Zealand white rabbits purchased from Charles River. For feeding, five ticks were introduced into a 60 μm sieve cell well (Fisher Scientific) which was attached to the ear of the rabbit with nail glue. Ticks were observed every 30 minutes for the first eight hours to assess skin attachment and feeding behavior. Tick attachment was defined as the minimum time required for 3 of the 5 ticks to attach to the ear. […] The observation was continued for 72 hours for both species of ticks. Separate rabbits were used for each species and for each treatment. […] All the ticks in this study were active until attachment.
In this series of experiments, the protective effect(s) of different concentrations of DEET and Lipodeet on the attachment of nymphs and adults of two species of ticks, A. americanum and D. variabilis, to the rabbit ear was evaluated. Experiments were set up wherein different concentrations (20% or 40% of DEET or Lipodeet were applied (0.2 ml of the samples to 10 cm^2 surface area), onto the dorsal side of the ear lobes of a rabbit. After allowing the preparation to dry for 30 min., sieve cups (Fisher Scientific, 1″ inner diameter) were then attached to the ear lobes using nail glue. Ten nymphs or five adult ticks were then introduced into the sieve cups every 24 hrs through a small slit made on the sieve membrane. Attachment of ticks to the skin was monitored every 24 hrs. for up to 72 hrs. after introduction of the ticks.
More than 60% of ticks used in our experiments were dead after contact with Lipodeet. Although a well-aerated sieve cup was used (1″ inner diameter), we initially thought that the tick mortality may be due to possible DEET vapor trapped within the sieve cup. Therefore, we designed experiments where one half of the surface area of skin within the sieve cup was treated with 40% Lipodeet and the other half was left untreated. Five adults ticks of A. americanum were then introduced into the sieve cups every 24 hrs. After 72 hrs., the sieve cups were removed.

Aedes aegypti = assay: Laboratory evaluation as mosquito repellant on human volunteers; assay type: in vivo; settings: 10% or 30%; human forearm
Procedure: However, one of the major uses of DEET is against mosquitoes. Therefore, we wanted to test whether Lipodeet prolongs the mosquito repellency activity of DEET. These experiments were conducted on human volunteers at the Illinois Natural History Survey Center for Economic Entomology, University of Illinois Urbana-Champaign. […] The test solutions were applied to 8.5 cm area (1.76 μl/cm^2) on the forearm of the subjects and the duration of repellency against the mosquitoes was evaluated over a period of 24 hrs. No treatment was applied to the other forearm and this remained as controls. Paper cups (1 pint) screened at one end with a fine mesh and closed at the other end was used as test cages in this study. […] Five minutes after application of the samples were treated as time 0. After the exposure, mosquitoes were removed and the number that were blooded were counted. Values were expressed as follows: [formula]

CCN(CC)C(=O)c1cccc(C)c1 [DEET, N,N-diethyl-m-toluamide]
DEET present in the plasma ([1]; 15 min): 11.6 mg | DEET present in the plasma, percent ([1]; 15 min): 9.7% | DEET present in the plasma ([1]; 30 min): 5.3 mg | DEET present in the plasma, percent ([1]; 30 min): 4.4% | DEET present in the plasma ([1]; 60 min): ~0.182 mg | DEET present in the plasma, percent ([1]; 60 min): 0.15% | initial time with no tick attachment (Dermacetor variabilis; 10% DEET on rabbit ear, normal rabbits 4.5 hours): 7.0 h | time effective in preventing attachment of adult ticks (Dermacetor variabilis; 20%, adults): up to 24 hrs | time effective in preventing attachment of nymphs (Dermacetor variabilis; 20%, nymphs): up to 48 hrs | effect of raising concentration, adult ticks (Dermacetor variabilis; 40% versus 20%, adults): slightly more effective at 48 hrs | effect of raising concentration, nymphs (Dermacetor variabilis; 40% versus 20%, nymphs): no added advantage against nymphs | duration of mosquito repellent effect (Aedes aegypti): completely lost by six hours
